Results from patent US20100184790A1, “PYRROLO[2,3-B]PYRIDINE COMPOUNDS, AZAINDOLE COMPOUNDS USED FOR SYNTHESIZING SAID PYRROLO[2,3-B]PYRIDINE COMPOUNDS, METHODS FOR THE PRODUCTION THEREOF, AND USES THEREOF” (CENTRE NATIONAL DE LA RECHERCHE SCIENTIFIQUE, priority 2007, published 2010).
Read-outs that look alike come from different tables or passages of the source.

Legend:
DYRK1A = DYRK1A (Rattus norvegicus, UniProt Q63470); assay: DYRK1A kinase assay (myelin basic protein); assay type: biochemical; conditions: 15 μM ATP, 30° C., myelin basic protein; read-out: IC50 DYRK1A
SH-SY5Y cells = assay: Cell survival, MTS reduction, SH-SY5Y; assay type: cell-based; conditions: Homo sapiens
Method: The human neuroblastoma cell line SH-SY5Y was grown in a DMEM medium with L-glutamine originating from Invitrogen (Cergy Pontoise, France), antibiotics and 10% by volume of FCS originating from Invitrogen. […] These compounds were also tested at various concentrations with regard to their effects on SH-SY5Y and HEK293 cells. […] The IC50 values were calculated from the dose-response curves and are given in micromoles (mean±standard deviation of two independent measurements carried out in triplicate). […] The survival of the cells was estimated by the assaying of the degree of reduction of MTS induced by this exposure. […] The ICS© values were calculated from dose-response curves and are given in micromoles in table 3 below.

protein kinase hSGK1 = molecular target: T1, protein kinase hSGK1 (Homo sapiens, UniProt O00141); conditions: from Angew. Chem. Int. Ed., 2005, 44, 6951-6956; cited from earlier work
T1 sequence (O00141 1-431): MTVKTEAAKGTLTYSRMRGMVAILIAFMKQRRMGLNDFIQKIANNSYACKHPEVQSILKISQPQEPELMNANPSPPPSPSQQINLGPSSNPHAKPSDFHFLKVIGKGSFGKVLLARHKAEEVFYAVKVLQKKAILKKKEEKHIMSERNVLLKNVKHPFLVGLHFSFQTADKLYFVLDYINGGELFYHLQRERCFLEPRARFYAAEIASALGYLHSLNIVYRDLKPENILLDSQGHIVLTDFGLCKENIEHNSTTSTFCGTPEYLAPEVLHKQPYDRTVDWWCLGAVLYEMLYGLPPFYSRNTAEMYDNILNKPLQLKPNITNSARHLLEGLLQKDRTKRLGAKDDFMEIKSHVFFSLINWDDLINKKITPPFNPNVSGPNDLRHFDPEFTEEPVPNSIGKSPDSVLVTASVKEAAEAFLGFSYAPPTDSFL

GSK-3α/β = GSK-3α/β kinase assay (GS-1 peptide); assay type: biochemical, porcine; conditions: 15 μM ATP, 30° C.
Method: After incubating at 30° C. for 30 (thirty) minutes, the 25 μl aliquots of the supernatant were treated as described above.

CK1δ/ε = CK1δ/ε kinase assay (CK1-specific peptide); assay type: biochemical, porcine; conditions: 15 μM ATP, 30° C.
Method: CK1δ/ε was purified from porcine brain by affinity chromatography on an immobilized axin fragment. It was assayed as described for CDK1 but using a CK1-specific peptide substrate.

HCT116 (colon) = assay: Cell survival, MTS reduction, HCT116; assay type: cell-based; conditions: Homo sapiens, HCT-116; forty eight hours after addition; read-out: Survival of the cells (IC50, μM) (MTS reduction) HCT116 (colon)
Method: (§1) The viability of the cells was determined by measuring the reduction of 3-(4,5-dimethylthiazol-2-yl)-5-(3-carboxymethoxyphenyl)-2-(4-sulfophenyl)-2H/tetrazolium (MTS). The procedure was such as described in detail in Ribas J. et al., 2004, “Cell differentiation, caspase inhibition, and macromolecular synthesis blockage, but not BCL-2 or BCL-XL proteins, protect SH-SYS5 cells from apoptosis triggered by two CDK inhibitory drugs”, Exp. Cell Res., 2004, 195, 9-24.
(§2) The effects of meriolins 2 and 3 on the survival of various cell lines were also tested at various concentrations in order to determine their effects on eight different cell lines. The survival of the cells was expressed forty eight hours after the addition of each meriolin, using the MTS reduction test. The ICS© values were calculated from dose-response curves and are given in micromoles in table 3 below.

MDA-MB-231 (breast) = assay: Cell survival, MTS reduction, MDA-MB-231; assay type: cell-based; conditions: Homo sapiens, forty eight hours after addition, read-out: Survival of the cells (IC50, μM) (MTS reduction) MDA-MB-231 (breast)
Method: as §1, §2

PC3 (prostate) = assay: Cell survival, MTS reduction, PC3; assay type: cell-based; conditions: forty eight hours after addition; read-out: Survival of the cells (IC50, μM) (MTS reduction) PC3 (prostate)
Method: as §1, §2

Huh7 (hepatoma) = assay: Cell survival, MTS reduction, Huh7; assay type: cell-based; conditions: Homo sapiens, Huh-7; forty eight hours after addition; read-out: Survival of the cells (IC50, μM) (MTS reduction) Huh7 (hepatoma)
Method: as §1, §2

F1 (hepatoma) = assay: Cell survival, MTS reduction, F1; assay type: cell-based; conditions: forty eight hours after addition; read-out: Survival of the cells (IC50, μM) (MTS reduction) F1 (hepatoma)
Method: as §1, §2

[1] = test system: HEK293 (embryonic kidney); assay: Cell survival, MTS reduction, HEK293; assay type: cell-based; conditions: Homo sapiens, forty eight hours after addition, read-out: Survival of the cells (IC50, μM) (MTS reduction) HEK293 (embryonic kidney)
Method: The HEK293 cells were grown in an MEM medium with Glutamax originating from Invitrogen, antibiotics and 10% by volume of FCS.
as §1
The effects of meriolins 2 and 3 on the survival of various cell lines were also tested at various concentrations in order to determine their effects on eight different cell lines. […] The ICS© values were calculated from dose-response curves and are given in micromoles in table 3 below.

[2] = test system: Human foreskin fibroblasts; assay: Cell survival, MTS reduction, human foreskin fibroblasts; assay type: cell-based; conditions: Fibroblast, forty eight hours after addition, read-out: Survival of the cells (IC50, μM) (MTS reduction) Human foreskin fibroblasts
Method: as §1, §2

CDK1/cyclin B = CDK1/cyclin B kinase assay (histone H1, [γ-33P]-ATP); conditions: read-out: IC50 CDK1/cyclin B, 15 μM ATP, 30° C.
Method: Controls were prepared with appropriate dilutions of dimethyl sulfoxide.
After incubating at 30° C. for 30 minutes, 25 μl aliquots of the supernatant were spotted onto filters made of Whatman P81 phosphocellulose paper and, 20 seconds later, the filters were washed 5 times (for at least 5 (five) minutes each time) in a solution of 10 ml of phosphoric acid/liter of water. The wet filters were subjected to counting in the presence of an ACS scintillation fluid from Amersham.

A4573 cells xenograft = assay: In vivo antitumor activity, A4573 xenograft; design: species or system athymic male nude mice; conditions: 50 mg/kg intraperitoneal once daily, versus control
Method: Athymic male nude mice (aged from 5 to 6 weeks) were obtained from the National Cancer Institute. The mice were housed in the animal facility of the Division of Comparative Medicine of Georgetown University. All the studies on the animals were carried out under protocols approved by the Animal Care and Use Committee of Georgetown University. The mice were inoculated by subcutaneous injection into the right posterior flank with 4×10^6 A4573 cells in 100 μl of Matrigel basic membrane matrix (Becton Dickinson). Xenografts were grown to a mean tumor volume of 129±30 mm^3. The compounds tested were first dissolved in either absolute methanol or DMSL (1 volume). A carrier solution was produced using a diluent containing 10% Tween 80, 20% N—N-dimethylacetamide and 70% polyethylene glycol 400 (Fisher Scientific, Pittsburgh, Pa.). The mice were randomly divided into two groups (six animals per group) and the treatment was initiated. […] At these times, the tumors were removed, measured and prepared for TUNEL assays. The primary tumor volumes were calculated by the formula V=(1/2)a×b^2, where a is the longest tumor axis and b is the shortest tumor axis. The values are given in the form of mean±standard deviation values in quantitative experiments. […]

[3] = 8 h, Table 3, forty eight hours after addition, read-out: Survival of the cells (IC50, μM) (MTS reduction) SH-SY5Y (neuroblastoma)
[4] = Table 2, exposed for 24 hours, read-out: IC50 survival of SH-SY5Y cells (MTS reduction)

| SMILES | IC50 (DYRK1A) | IC50 (SH-SY5Y cells; 24 h, read-out: IC50 survival of SH-SY5Y cells (MTS reduction)) | IC50 (protein kinase hSGK1) | IC50 (GSK-3α/β) | IC50 (CK1δ/ε) | IC50 (SH-SY5Y cells; [3]) | IC50 (SH-SY5Y cells; [4]) | IC50 (HCT116 (colon)) | IC50 (MDA-MB-231 (breast)) | IC50 (PC3 (prostate)) | IC50 (Huh7 (hepatoma)) | IC50 (F1 (hepatoma)) | IC50 [1] | IC50 [2] | IC50 (CDK1/cyclin B) | mean tumor volume over time (FIG. 3) (A4573 cells xenograft) |
| --- | --- | --- | --- | --- | --- | --- | --- | --- | --- | --- | --- | --- | --- | --- | --- | --- |
| Nc1nccc(-c2c[nH]c3ncccc23)n1 [Meriolin 1, 3-[(2-amino)pyrimidin-4-yl]-1H-pyrrolo[2,3-b]pyridine, reference compound] | 130 nM | 0.67 µM | 2400 nM |  |  |  |  |  |  |  |  |  |  |  |  |  |
| Nc1nccc(-c2c[nH]c3nccc(O)c23)n1 [Meriolin 2, 3-[(2-amino)pyrimidin-4-yl]-4-hydroxy-1H-pyrrolo[2,3-b]pyridine] | 35 nM |  |  | 400 nM | 50 nM | 0.41 µM | 0.41 µM | 0.08 µM | 1.8 µM | 17.3 µM | 1 µM | 2 µM | 2.6 µM | 20 µM | 57 nM |  |
| COc1ccnc2[nH]cc(-c3ccnc(N)n3)c12 [Meriolin 3, 3-[(2-amino)pyrimidin-4-yl]-4-methoxy-1H-pyrrolo[2,3-b]pyridine] | 29 nM |  |  | 230 nM | 200 nM | 0.072 µM | 0.073 µM | 0.94 µM | 19 µM | 95 µM | 0.12 µM | 0.26 µM | 0.38 µM | 8 µM | 170 nM | only increases slightly over time |
